Like-named read-outs stand apart in the source and are kept apart here.

By IC50 is commonly meant the midpoint of a concentration-inhibition curve.

The test system of test [1] is anti-GBM glomerulonephritis. As to the kind of experiment: Mouse anti-GBM glomerulonephritis model. The format is in vivo. The method, then:
The mouse anti-GBM glomerulonephritis model involves antibody mediated autoimmunity, and the model is histologically and mechanistically similar to glomerulonephritis in humans. The model also includes kidney deposition of immune complexes (IC), targeting glomerular basement membrane. The efficacy of Compound (I) (also referred to as PRN1008) relative to the corticosteroid dexamethasone (Dex) was tested in a mouse anti-GBM glomerulonephritis model according to the design shown in FIG. 1. Briefly, to induce glomerulonephritis, mice were pre-sensitized with sheep IgG/FCA (Study Day −5). Five days later (Study Day 0), the mice received anti-GBM sheep IgG. Treatment with vehicle, Compound (I), or Dex with various dosage regimes (Compound (I): 10 mg/kg, 20 mg/kg, or 40 mg/kg QD or 20 mg/kg BID; Dex: 1 mg/kg QD; Vehicle: QD or BID) began at Study Day −1, one day prior to injection with anti-GBM sheep IgG. Treatment continued until Study Day 10, for […] treatment in total. Urine protein analysis was conducted on Study Days −6, −4, −1, 1, 3, 6, 8, and 10. Following Study Day 10, mice serum BUN levels were analyzed as a measure of kidney function, and kidney histology was performed.

The subject of test [2] is CD20+ B-cells in human whole blood. As to the kind of experiment: B-cell activation: anti-IgM-induced CD69 expression on CD20+ B-cells in human whole blood (flow cytometry). The test is classed as cell-based. Conditions: read-out: IC50 for inhibition of CD69 B-cell expression. The method, then:
Compound (I) can inhibit B-cell activation, BCR dependent B-cell proliferation, and de novo antibody production. To determine the functional activity of Compound (I), the ability of the compound to inhibit B-cell activation as assessed by anti-IgM-induced CD69 expression in CD20+ B-cells in human whole blood was determined (FIG. 7). […]. As an additional measure of the effects of Compound (I) on B-cell function, the ability of Compound (I) to inhibit B-cell receptor (BCR)-induced human B-cell proliferation was determined. […]. A randomized multicenter trial comparing low-dose prednisolone versus observation for prevention of recurrences in adult immune thrombocytopenia. Clin Appl Thromb Hemost 24: 867-873.).
A general note: Flow cytometry measures light scatter and fluorescence of single cells or particles in a stream.

Another test deals with ADCC. Briefly: Antibody-dependent cell-mediated cytotoxicity (ADCC) in combination with anti-CD20 antibodies. The format is cell-based.
Test [3] has as its system enriched B-cells from healthy volunteers. As to the kind of experiment: Inhibition of B-cell antibody production (IgG and IgM AlphaLISA). Conditions: for IC50: Homo sapiens, B-cell, 168 h.
Procedure: B-cells were enriched from leukocyte concentrate of TrimaAccel® LRS chamber recovered after a plateletpheresis procedure from healthy volunteers (Stanford Blood Center, Palo Alto, Calif.) using the Straight from LRSC CD19 Microbead Kit (Miltenyi Biotech). […] IC50 was calculated in GraphPad Prism with non-linear regression using “log (inhibitor) vs. response—Variable slope (four parameters)” analysis with no constraints.
Setting [4] is: 10, 20 or 40 mg/kg QD or 20 mg/kg BID, Study Day -1 to 10.

With `CC(C)(C=C(C#N)C(=O)N1CCC[C@@H](n2nc(-c3ccc(Oc4ccccc4)cc3F)c3c(N)ncnc32)C1)N1CCN(C2COC2)CC1` [Compound (I), 2-[(3R)-3-[4-amino-3-(2-fluoro-4-phenoxy-phenyl)pyrazolo[3,4-d]pyrimidin-1-yl]piperidine-1-carbonyl]-4-methyl-4-[4-(oxetan-3-yl)piperazin-1-yl]pent-2-enenitrile], the “inhibition of kidney weight gain (surrogate for kidney inflammation)” value in test [1] (setting [4]) is on record as “dose dependent inhibition”. In test [1] (setting [4]), the “inhibition of severe proteinuria” value was “dose dependent inhibition”. The “inhibition of serum blood urea nitrogen (BUN) levels” value in test [1] (10, 20 or 40 mg/kg QD or 20 mg/kg BID, Study Day -1 to 10, BUN after Day 10) is “dose dependent inhibition”. Further, the “kidney pathology (histology)” value in test [1] (compared with Dex 1 mg/kg QD) is “significantly reduced kidney pathology, superior to a steroid comparator (Dex)”. Moreover, in test [1] (urine protein analysis up to Study Day 10), the “proteinuria during the study” value is given as “reduced proteinuria”. Further, the IC50 in test [2] came to 126 ± 32 nM; in test [3] (read-out: IgG antibody production IC50, CpG (TLR-9 agonist) stimulation, T-independent, 7 days) it was 50 ± 90 nM; in test [3] (read-out: IgG antibody production IC50, TNP-LPS stimulation, T-independent, 7 days), 300 ± 600 nM; in test [3] (read-out: IgG antibody production IC50, anti-CD40 + IL-21 stimulation (T-cell dependent), 7 days), 20 ± 20 nM; in test [3] (read-out: IgM antibody production IC50, CpG (TLR-9 agonist) stimulation, T-independent, 7 days) it was 1 ± 1 nM; in test [3] (read-out: IgM antibody production IC50, TNP-LPS stimulation, T-independent, 7 days), 200 ± 600 nM. The half-inhibitory concentration (IC50) in test [3] (read-out: IgM antibody production IC50, anti-CD40 + IL-21 stimulation (T-cell dependent), 7 days) amounted to 800 ± 1000 nM. Moreover, in the test with ADCC, the “effect on ADCC” value is on record as “did not block”. Also, the “T-dependent and T-independent antibody production (IgG and IgM)” value in test [3] (CpG, TNP-LPS or anti-CD40+IL-21 stimulation, 7 days) is given as “inhibited”.
